# In ChEMBL document CHEMBL2407038, “Cyclophilin inhibitors as antiviral agents” (Bioorg Med Chem Lett, 2013):
# Square brackets hold non-standard residues; d marks the D form. Peptide text beside a SMILES is read from it. MeBmt = C/C=C/C[C@@H](C)[C@@H](O)[C@H](NC)C(=O)O; NEtVal = CCN[C@H](C(=O)O)C(C)C; NMeL = CN[C@@H](CC(C)C)C(=O)O; NMeV = CN[C@H](C(=O)O)C(C)C; dHiv = CC(C)[C@@H](O)C(=O)O; dNMeA = CN[C@H](C)C(=O)O; Abu = CC[C@H](N)C(=O)O
# What was measured:
# Experiment in all cases: microbe, parasite or virus in culture
# [1] = tested on: Human immunodeficiency virus 1; settings: Human immunodeficiency virus 1, 3B, MT4, 96 h
# Description: Antiviral activity against HIV1 3B infected in human MT4 cells coinfected with HTLV1 assessed as reduction in virus-induced cytopathogenicity after 4 days by MTT assay
# Hepatitis C virus [2] = settings: Huh-7
# Description: Antiviral activity against Hepatitis C virus infected in human HuH7 cells by luciferase reporter gene assay
# [3] = tested on: Human immunodeficiency virus 1; settings: Human immunodeficiency virus 1, 3B, CEM-SS, 144 h
# Description: Antiviral activity against HIV1 3B infected in human CEM-SS cells assessed as reduction in virus-induced cytopathogenicity after 6 days by MTS assay
# Hepatitis C virus [4] = settings: genotype 2b
# Description: Antiviral activity against Hepatitis C virus genotype 2b infected in human Huh-9-13 cells after overnight incubation by MTT assay
# [5] = tested on: Human immunodeficiency virus 1; settings: Human immunodeficiency virus 1, LAI, CEM-4
# Description: Antiviral activity against HIV1 LAI infected in human CEM4 cells assessed as inhibition of viral replication
# Hepatitis C virus [6] = tested on: Hepatitis C virus
# Description: Antiviral activity against Hepatitis C virus
# Hepatitis C virus [7] = settings: Huh-7; remark: listed apart in the source
# Description: Antiviral activity against Hepatitis C virus infected in human Huh7ET cells by luciferase reporter gene assay
# Hepatitis C virus [8] = settings: Huh-7, 72 h
# Description: Antiviral activity against Hepatitis C virus infected in human Huh7ET cells after 72 hrs by luciferase reporter gene assay
# Hepatitis C virus [9] = settings: 16 h
# Description: Antiviral activity against Hepatitis C virus after 16 hrs by cell-based assay
# [10] = tested on: Human immunodeficiency virus 1; settings: Human immunodeficiency virus 1, 3B, MT4
# Description: Antiviral activity against HIV1 3B infected in human MT4 cells assessed as reduction in virus-induced cytopathogenicity after 5 to 6 days by MTT assay
# Hepatitis C virus [11] = settings: Huh-5-2, 72 h
# Description: Antiviral activity against Hepatitis C virus infected in human HuH5.2 cells after 72 hrs by luciferase reporter gene assay
smiles,measurement,setting,value
CC[C@@H]1NC(=O)[C@H]([C@H](O)[C@H](C)C/C=C/CO)N(C)C(=O)[C@H](C(C)C)N(C)C(=O)[C@H](CC(C)C)N(C)C(=O)[C@H](CC(C)C)N(C)C(=O)[C@@H](C)NC(=O)[C@H](C)NC(=O)[C@H](CC(C)C)N(C)C(=O)[C@H](C(C)C)NC(=O)[C@H](CC(C)C)N(C)C(=O)CN(C)C1=O,EC50,[1],460 nM
C/C=C/C[C@@H](C)[C@@H](O)[C@H]1C(=O)N[C@@H](CC)C(=O)N(C)[C@@H](CSCCCN2CCOCC2)C(=O)N(C)[C@@H](CC(C)(C)O)C(=O)N[C@@H](C(C)C)C(=O)N(C)[C@@H](CC(C)C)C(=O)N[C@@H](C)C(=O)N[C@H](C)C(=O)N(C)[C@@H](CC(C)C)C(=O)N(C)[C@@H](CC(C)C)C(=O)N(C)[C@@H](C(C)C)C(=O)N1C,EC50,Hepatitis C virus [2],20 nM
C/C=C/C[C@@H](C)[C@@H](O)[C@H]1C(=O)N[C@@H](CC)C(=O)N(C)[C@@H](CSCCN2CCOCC2)C(=O)N(C)[C@@H](CC(C)(C)O)C(=O)N[C@@H](C(C)C)C(=O)N(C)[C@@H](CC(C)C)C(=O)N[C@@H](C)C(=O)N[C@H](C)C(=O)N(C)[C@@H](CC(C)C)C(=O)N(C)[C@@H](CC(C)C)C(=O)N(C)[C@@H](C(C)C)C(=O)N1C,EC50,[3],94.9 nM
C/C=C/C[C@@H](C)[C@@H](O)[C@H]1C(=O)N[C@@H](CC)C(=O)N(C)[C@H](C)C(=O)N(CC)[C@@H](C(C)C)C(=O)N[C@@H](CC(C)C)C(=O)N(C)[C@@H](CC(C)C)C(=O)N[C@@H](C)C(=O)O[C@H](C(C)C)C(=O)N(C)[C@@H](CC(C)C)C(=O)N[C@@H](CC(C)C)C(=O)N(C)[C@@H](C(C)C)C(=O)N1C (cyclo(A[dHiv][NMeL]L[NMeV][MeBmt][Abu][dNMeA][NEtVal]L[NMeL])),EC50,Hepatitis C virus [4],37 nM
C/C=C/C[C@@H](C)[C@@H](OC(C)=O)[C@H]1C(=O)N[C@@H](CC)C(=O)N(C)C(OC(C)=O)C(=O)N(C)[C@@H](CC(C)C)C(=O)N[C@@H](C(C)C)C(=O)N(C)[C@@H](CC(C)C)C(=O)N[C@@H](C)C(=O)N[C@H](C)C(=O)N(C)[C@@H](CC(C)C)C(=O)N(C)[C@@H](CC(C)C)C(=O)N(C)[C@@H](C(C)C)C(=O)N1C (stereo partly specified),IC50,[3],115 nM
C/C=C/C[C@@H](C)[C@@H](O)[C@H]1C(=O)N[C@@H](CC)C(=O)N(C)[C@H](SCCN(CC)CC)C(=O)N(C)[C@@H](CC(C)C)C(=O)N[C@@H](C(C)C)C(=O)N(C)[C@@H](CC(C)C)C(=O)N[C@@H](C)C(=O)N[C@H](C)C(=O)N(C)[C@@H](CC(C)C)C(=O)N(C)[C@@H](CC(C)C)C(=O)N(C)[C@@H](C(C)C)C(=O)N1C,EC50,[5],2.5 nM
C/C=C/C[C@@H](C)[C@@H](O)[C@H]1C(=O)N[C@@H](CC)C(=O)N[C@H](C)C(=O)N(C)[C@@H](CC(C)C)C(=O)N(C/C=C(\C)CO)[C@@H](C(C)C)C(=O)N(C)[C@@H](CC(C)C)C(=O)N[C@@H](C)C(=O)N[C@H](C)C(=O)N(C)[C@@H](CC(C)C)C(=O)N(C)[C@@H](CC(C)C)C(=O)N(C)[C@@H](C(C)C)C(=O)N1C,EC50,Hepatitis C virus [6],50 nM
C/C=C/C[C@@H](C)[C@@H](O)[C@H]1C(=O)N[C@@H](CC)C(=O)N(C)[C@H](SCCCN2CCOCC2)C(=O)N(C)[C@@H](CC(C)(C)O)C(=O)N[C@@H](C(C)C)C(=O)N(C)[C@@H](CC(C)C)C(=O)N[C@@H](C)C(=O)N[C@H](C)C(=O)N(C)[C@@H](CC(C)C)C(=O)N(C)[C@@H](CC(C)C)C(=O)N(C)[C@@H](C(C)C)C(=O)N1C,EC50,Hepatitis C virus [7],40 nM
C/C=C/C[C@@H](C)[C@@H](O)[C@H]1C(=O)N[C@@H](CC)C(=O)N(C)CC(=O)N(C)[C@@H](C(C)C)C(=O)N[C@@H](C(C)C)C(=O)N(C)[C@@H](CC(C)C)C(=O)N[C@@H](C)C(=O)N[C@H](C)C(=O)N(C)[C@@H](CC(C)C)C(=O)N(C)[C@@H](CC(C)C)C(=O)N(C)[C@@H](C(C)C)C(=O)N1C,EC50,[1],54 nM
C/C=C/C[C@@H](C)[C@@H](O)[C@H]1C(=O)N[C@@H](CC)C(=O)N(C)[C@H](SCCN(C)C)C(=O)N(C)[C@@H](CC(C)(C)O)C(=O)N[C@@H](C(C)C)C(=O)N(C)[C@@H](CC(C)C)C(=O)N[C@@H](C)C(=O)N[C@H](C)C(=O)N(C)[C@@H](CC(C)C)C(=O)N(C)[C@@H](CC(C)C)C(=O)N(C)[C@@H](C(C)C)C(=O)N1C [SCY 635],EC50,[5],45 nM
C/C=C/C[C@@H](C)[C@@H](O)[C@H]1C(=O)N[C@@H](CC)C(=O)N(C)CC(=O)N(C)[C@@H](CC(C)(C)O)C(=O)N[C@@H](C(C)C)C(=O)N(C)[C@@H](CC(C)C)C(=O)N[C@@H](C)C(=O)N[C@H](C)C(=O)N(C)[C@@H](CC(C)C)C(=O)N(C)[C@@H](CC(C)C)C(=O)N(C)[C@@H](C(C)C)C(=O)N1C,EC50,[1],279 nM
C/C=C/C[C@@H](C)[C@@H](O)[C@H]1C(=O)N[C@@H](CC)C(=O)N(C)CC(=O)N(C)[C@@H](CC(C)(C)OCc2ccccc2)C(=O)N[C@@H](C(C)C)C(=O)N(C)[C@@H](CC(C)C)C(=O)N[C@@H](C)C(=O)N[C@H](C)C(=O)N(C)[C@@H](CC(C)C)C(=O)N(C)[C@@H](CC(C)C)C(=O)N(C)[C@@H](C(C)C)C(=O)N1C,EC50,Hepatitis C virus [8],410 nM
C/C=C/C[C@@H](C)[C@@H](O)[C@H]1C(=O)N[C@@H](CC)C(=O)N(C)C(OC(C)=O)C(=O)N(C)[C@@H](CC(C)C)C(=O)N[C@@H](C(C)C)C(=O)N(C)[C@@H](CC(C)C)C(=O)N[C@@H](C)C(=O)N[C@H](C)C(=O)N(C)[C@@H](CC(C)C)C(=O)N(C)[C@@H](CC(C)C)C(=O)N(C)[C@@H](C(C)C)C(=O)N1C (stereo partly specified),IC50,[3],119 nM
C/C=C/C[C@@H](C)[C@@H](O)[C@H]1C(=O)N[C@@H](CC)C(=O)N(C)CC(=O)N(C)[C@@H](CC(C)C)C(=O)N[C@@H](C(C)C)C(=O)N(C)[C@@H](CC(C)C)C(=O)N[C@@H](C)C(=O)N[C@H](C)C(=O)N(C)[C@@H](CC(C)(C)O)C(=O)N(C)[C@@H](CC(C)C)C(=O)N(C)[C@@H](C(C)C)C(=O)N1C,EC50,[1],255 nM
C/C=C/C[C@@H](C)[C@@H](O)[C@H]1C(=O)N[C@@H](CC)C(=O)N(C)CC(=O)N(C)[C@@H](CC(C)C)C(=O)N[C@@H](C(C)C)C(=O)N(C)[C@@H](CC(C)C)C(=O)N[C@@H](C)C(=O)N[C@H](C)C(=O)N(C)[C@@H](CC(C)C)C(=O)N(C)[C@@H](CC(C)C)C(=O)N(C)[C@@H](C(C)C)C(=O)N1C [CYCLOSPORINE],EC50,[1],450 nM
same,EC50,Hepatitis C virus [6],230 nM
C/C=C/C[C@@H](C)[C@@H](O)[C@H]1C(=O)N[C@@H](CC)C(=O)N(C)[C@H](OC)C(=O)N(C)[C@@H](CC(C)(C)O)C(=O)N[C@@H](C(C)C)C(=O)N(C)[C@@H](CC(C)C)C(=O)N[C@@H](C)C(=O)N[C@H](C)C(=O)N(C)[C@@H](CC(C)C)C(=O)N(C)[C@@H](CC(C)C)C(=O)N(C)[C@@H](C(C)C)C(=O)N1C,EC50,[3],60 nM
C/C=C/C[C@@H](C)[C@@H](O)[C@H]1C(=O)N[C@@H]([C@@H](C)O)C(=O)N(C)CC(=O)N(C)[C@@H](CC(C)C)C(=O)N[C@@H](C(C)C)C(=O)N(C)[C@@H](CC(C)C)C(=O)N[C@@H](C)C(=O)N[C@H](C)C(=O)N(C)[C@@H](CC(C)CO)C(=O)N(C)[C@@H](CC(C)C)C(=O)N(C)[C@@H](C(C)C)C(=O)N1C (stereo partly specified),EC50,Hepatitis C virus [9],< 3000 nM
C/C=C/C[C@@H](C)[C@@H](O)[C@H]1C(=O)N[C@@H](CC)C(=O)N(C)CC(=O)N(C)[C@@H]([C@@H](C)CC)C(=O)N[C@@H](C(C)C)C(=O)N(C)[C@@H](CC(C)C)C(=O)N[C@@H](C)C(=O)N[C@H](C)C(=O)N(C)[C@@H](CC(C)C)C(=O)N(C)[C@@H](CC(C)C)C(=O)N(C)[C@@H](C(C)C)C(=O)N1C [NIM811],EC50,[1],47 nM
C/C=C/C[C@@H](C)[C@@H](O)[C@H]1C(=O)N[C@@H](CC)C(=O)N(C)[C@H](C)C(=O)N(CC)[C@@H](C(C)C)C(=O)N[C@@H](C(C)C)C(=O)N(C)[C@@H](CC(C)C)C(=O)N[C@@H](C)C(=O)N[C@H](C)C(=O)N(C)[C@@H](CC(C)C)C(=O)N(C)[C@@H](CC(C)C)C(=O)N(C)[C@@H](C(C)C)C(=O)N1C [ALISPORIVIR],EC50,[10],63 nM
same,EC50,Hepatitis C virus [11],25 nM
